The target of assay [1] is T1, KRas-mediated phosphorylation of ERK in MKN1 cells (Homo sapiens, UniProt P01116).
T1 construct: pERK HTRF read-out
In words: Inhibition of KRas-mediated phosphorylation of ERK (HTRF), MKN1 cells. Format: cell-based. The conditions noted are these: MKN1 cells (KRas WT); HTRF pERK; 3 h incubation. As for the experimental part:
Inhibition of KRas Phosphorylation of ERK (HTRF) by Exemplary Compounds of Formula (Ia) or (Ib)
Cisbio HTRF Advanced pERK Assay Catalog #64AERPEH • Cells: MKN1, PSN1 • Procedure: • 1. Day 1: Seed 6,000 cells/well −25 μl/well in 384-well white solid bottom plate; RPM1_10% FBS. Incubate overnight at 37 °C/5% CO2. • 2.
On the technique in general: Time-resolved FRET reads energy transfer from a long-lived donor to a nearby acceptor.

Assay [2] has as its target T2, KRas-mediated phosphorylation of ERK in A549 cells (Homo sapiens, UniProt P01116, G12S).
T2 construct: pERK HTRF read-out
Put plainly: Inhibition of KRas-mediated phosphorylation of ERK (HTRF), A549 cells. The conditions noted are these: HTRF pERK, 3 h incubation. The format is cell-based.

A further assay has as its target T3, KRas G12C (Homo sapiens, UniProt P01116, G12C).
T3 construct: Biotinylated KRas (corresponding to amino acids 1-169, produced at Accelegan Inc.); biotin (biotinylated); purchased Accelegan Inc
In words: KRas binding assay, TR-FRET displacement of Cy5 labelled tracer. The conditions noted are these: 60-minute incubation at room temperature, 1% DMSO, pH 7.5. An outline of the steps:
(§1)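 Biotinylated KRas (aa 1-169) incubated with Cy5-labelled tracer, terbium streptavidin and compound (1% DMSO final) in 50 mM HEPES pH 7.5, 5 mM MgCl2, 0.005% Tween-20, 1 mM DTT. Tracer displacement read by TR-FRET after 60 min at room temperature; POC values fitted to 4-parameter IC50 equation.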

For the next assay, the target named is T4, KRas G12S (Homo sapiens, UniProt P01116, G12S).
T4 construct: Biotinylated KRas (corresponding to amino acids 1-169, produced at Accelegan Inc.); biotin (biotinylated); purchased Accelegan Inc
The description is as above. The conditions noted are these: 60-minute incubation at room temperature, 1% DMSO, pH 7.5. An outline of the steps: as §1

A further assay deals with T5, KRas WT (Homo sapiens, UniProt P01116).
T5 construct: Biotinylated KRas (corresponding to amino acids 1-169, produced at Accelegan Inc.); biotin (biotinylated); purchased Accelegan Inc
The description is as above. The conditions noted are these: 60-minute incubation at room temperature, 1% DMSO, pH 7.5. An outline of the steps: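 TR-FRET tracer-displacement readout after 60 min at room temperature, using KRas residues 1-169 (biotinylated) with terbium streptavidin and a Cy5 tracer. Buffer: 50 mM HEPES pH 7.5, 5 mM MgCl2, 0.005% Tween-20, 1 mM DTT, 1% DMSO final. IC50 from 4-parameter fit of POC data.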

T4 sequence (P01116 1-169 isoform P01116-2 G12S): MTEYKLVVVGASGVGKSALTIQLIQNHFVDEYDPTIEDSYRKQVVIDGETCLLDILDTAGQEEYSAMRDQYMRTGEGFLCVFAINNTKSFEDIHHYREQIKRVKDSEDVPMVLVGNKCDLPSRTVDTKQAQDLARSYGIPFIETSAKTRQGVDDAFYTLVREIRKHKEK
T2 sequence (P01116 1-188 isoform P01116-2 G12S): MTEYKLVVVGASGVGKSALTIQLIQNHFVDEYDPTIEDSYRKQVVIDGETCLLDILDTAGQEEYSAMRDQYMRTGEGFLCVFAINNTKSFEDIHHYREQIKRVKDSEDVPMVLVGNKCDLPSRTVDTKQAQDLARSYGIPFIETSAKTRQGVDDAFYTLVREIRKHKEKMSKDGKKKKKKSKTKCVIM
T1 sequence (P01116 1-188 isoform P01116-2): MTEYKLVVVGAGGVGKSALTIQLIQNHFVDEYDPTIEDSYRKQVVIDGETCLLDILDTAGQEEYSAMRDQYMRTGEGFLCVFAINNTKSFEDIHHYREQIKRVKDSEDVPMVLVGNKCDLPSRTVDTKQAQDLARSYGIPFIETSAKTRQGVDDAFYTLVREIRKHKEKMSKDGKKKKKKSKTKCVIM
T5 sequence (P01116 1-169 isoform P01116-2): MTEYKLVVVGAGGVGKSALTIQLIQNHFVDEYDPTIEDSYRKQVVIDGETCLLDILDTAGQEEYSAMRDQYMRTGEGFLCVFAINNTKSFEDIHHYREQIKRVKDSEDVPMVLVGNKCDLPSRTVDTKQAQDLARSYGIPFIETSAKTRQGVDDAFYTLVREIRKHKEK
T3 sequence (P01116 1-169 isoform P01116-2 G12C): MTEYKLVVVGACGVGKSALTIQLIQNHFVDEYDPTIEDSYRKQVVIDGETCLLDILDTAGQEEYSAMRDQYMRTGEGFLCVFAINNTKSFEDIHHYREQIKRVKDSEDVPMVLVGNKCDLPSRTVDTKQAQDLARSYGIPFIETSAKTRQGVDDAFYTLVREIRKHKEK

For `Cc1ccn(C(=O)[C@H]2CCCN(c3nc(OC[C@@]45CCCN4C[C@H](F)C5)nc4c(F)c(-c5ccc(F)c6sc(N)c(C#N)c56)c(Cl)cc34)CC2)n1` (atropisomer, axis not shown; (aS)) [Example 169, 2-amino-4-((R)-6-chloro-8-fluoro-2-(((2R,7aS)-2-fluorotetrahydro-1H-pyrrolizin-7a(5H)-yl)methoxy)-4-((S)-4-(3-methyl-1H-pyrazole-1-carbonyl)azepan-1-yl)quinazolin-7-yl)-7-fluorobenzo [b]thiophene-3-carbonitrile], the IC50 (usually the concentration that inhibits the measured activity by half) in assay [1] worked out at 9480 nM; in assay [2], 534 nM.

On to `Cc1ccn(C(=O)[C@@H]2CCCN(c3nc(OC[C@@]45CCCN4C[C@H](F)C5)nc4c(F)c(-c5ccc(F)c6sc(N)c(C#N)c56)c(Cl)cc34)CC2)n1` (atropisomer, axis not shown; (aS)) [Example 171, 2-amino-4-((R)-6-chloro-8-fluoro-2-(((2R,7aS)-2-fluorotetrahydro-1H-pyrrolizin-7a(5H)-yl)methoxy)-4-((R)-4-(3-methyl-1H-pyrazole-1-carbonyl)azepan-1-yl)quinazolin-7-yl)-7-fluorobenzo[b]thiophene-3-carbonitrile], for which the results for the IC50 in assay [1] and in assay [2] were 3040 nM and 6440 nM, respectively.

`CCc1c(F)ccc2cc(O)cc(-c3ncc4c(N5CC[C@H]6[C@@H](C5)[C@H]6C(=O)n5ccc(C)n5)nc(OC[C@@]56CCCN5C[C@H](F)C6)nc4c3F)c12` (stereo in doubt) [Example 99, (cis-3-(7-(8-ethyl-7-fluoro-3-hydroxynaphthalen-1-yl)-8-fluoro-2-(((2R,7aS)-2-fluorotetrahydro-1H-pyrrolizin-7a(5H)-yl)methoxy)pyrido[4,3-d]pyrimidin-4-yl)-3-azabicyclo[4.1.0]heptan-7-yl)(3-methyl-1H-pyrazol-1-yl)methanone]: the IC50 at KRas G12C amounted to 58 nM; on KRas G12S, 26 nM; in assay [1] it was 1050 nM; in assay [2] it was 54 nM.

On to `CCc1c(F)ccc2cc(O)cc(-c3ncc4c(N5C[C@@H](C)N(C(=O)n6ccc(C)n6)[C@H](C)C5)nc(OC[C@@]56CCCN5C[C@H](F)C6)nc4c3F)c12` [Example 86, ((2R,6R)-4-(7-(8-ethyl-7-fluoro-3-hydroxynaphthalen-1-yl)-8-fluoro-2-(((2R,7aS)-2-fluorotetrahydro-1H-pyrrolizin-7a(5H)-yl)methoxy)pyrido[4,3-d]pyrimidin-4-yl)-2,6-dimethylpiperazin-1-yl)(3-methyl-1H-pyrazol-1-yl)methanone], for which the IC50 at KRas G12C amounted to 3450 nM; at KRas G12S, 2200 nM; at KRas WT, 2320 nM; in assay [1] it was 4230 nM; in assay [2] it was 8960 nM.

Consider `CCc1c(F)ccc2cc(O)cc(-c3ncc4c(N5CC6(C(=O)n7ccc(C)n7)CCCC5C6)nc(OC[C@@]56CCCN5C[C@H](F)C6)nc4c3F)c12` (stereo partly drawn) [Example 87, (6-(7-(8-ethyl-7-fluoro-3-hydroxynaphthalen-1-yl)-8-fluoro-2-(((2R,7aS)-2-fluorotetrahydro-1H-pyrrolizin-7a(5H)-yl)methoxy)pyrido[4,3-d]pyrimidin-4-yl)-6-azabicyclo[3.2.1]octan-1-yl)(3-methyl-1H-pyrazol-1-yl)methanone], for which the IC50 on KRas G12C is 365 nM; at KRas G12S, 1680 nM; on KRas WT it was 1580 nM; in assay [1], 4060 nM; in assay [2], > 10000 nM.

In the case of `CCc1c(F)ccc2cc(O)cc(-c3ncc4c(N5CCC(OC)(C(=O)n6ccc(C)n6)CC5)nc(OC[C@@]56CCCN5C[C@H](F)C6)nc4c3F)c12` [Example 88, (1-(7-(8-ethyl-7-fluoro-3-hydroxynaphthalen-1-yl)-8-fluoro-2-(((2R,7aS)-2-fluorotetrahydro-1H-pyrrolizin-7a(5H)-yl)methoxy)pyrido[4,3-d]pyrimidin-4-yl)-4-methoxypiperidin-4-yl)(3-methyl-1H-pyrazol-1-yl)methanone], the IC50 was found to be 116 nM on KRas G12C; 1060 nM at KRas G12S; 1760 nM on KRas WT; 8070 nM in assay [1]; 589 nM in assay [2].

For `CCc1c(F)ccc2cc(O)cc(-c3ncc4c(N5CCC(COC)(C(=O)n6ccc(C)n6)CC5)nc(OC[C@@]56CCCN5C[C@H](F)C6)nc4c3F)c12` [Example 89, (1-(7-(8-ethyl-7-fluoro-3-hydroxynaphthalen-1-yl)-8-fluoro-2-(((2R,7aS)-2-fluorotetrahydro-1H-pyrrolizin-7a(5H)-yl)methoxy)pyrido[4,3-d]pyrimidin-4-yl)-4-(methoxymethyl)piperidin-4-yl)(3-methyl-1H-pyrazol-1-yl)methanone], the IC50 at KRas G12C is 2470 nM; at KRas G12S, 6630 nM; at KRas WT it was 8490 nM; in assay [1] it was > 10000 nM; in assay [2], > 10000 nM.

As for `CCc1c(F)ccc2cc(O)cc(-c3ncc4c(N5CC6CC5CC6C(=O)n5ccc(C)n5)nc(OC[C@@]56CCCN5C[C@H](F)C6)nc4c3F)c12` (stereo partly drawn) [Example 90, (2-(7-(8-ethyl-7-fluoro-3-hydroxynaphthalen-1-yl)-8-fluoro-2-(((2R,7aS)-2-fluorotetrahydro-1H-pyrrolizin-7a(5H)-yl)methoxy)pyrido[4,3-d]pyrimidin-4-yl)-2-azabicyclo[2.2.1]heptan-5-yl)(3-methyl-1H-pyrazol-1-yl)methanone], the IC50 at KRas G12C is 260 nM; on KRas G12S it was 286 nM; at KRas WT, 233 nM; in assay [1], 9190 nM; in assay [2], > 10000 nM.

Take `CCc1c(F)ccc2cc(O)cc(-c3ncc4c(N5CCC6CC6(C(=O)n6ccc(C)n6)CC5)nc(OC[C@@]56CCCN5C[C@H](F)C6)nc4c3F)c12` (stereo partly drawn) [Example 91, (4-(7-(8-ethyl-7-fluoro-3-hydroxynaphthalen-1-yl)-8-fluoro-2-(((2R,7aS)-2-fluorotetrahydro-1H-pyrrolizin-7a(5H)-yl)methoxy)pyrido[4,3-d]pyrimidin-4-yl)-4-azabicyclo[5.1.0]octan-1-yl)(3-methyl-1H-pyrazol-1-yl)methanone]: the IC50 worked out at 141 nM at KRas G12C; 62 nM at KRas G12S; 317 nM on KRas WT; 853 nM in assay [1]; 210 nM in assay [2].

Regarding `CCc1c(F)ccc2cc(O)cc(-c3ncc4c(NCC56CC(C(=O)n7ccc(C)n7)(C5)C6)nc(OC[C@@]56CCCN5C[C@H](F)C6)nc4c3F)c12` [Example 92, (3-(((7-(8-ethyl-7-fluoro-3-hydroxynaphthalen-1-yl)-8-fluoro-2-(((2R,7aS)-2-fluorotetrahydro-1H-pyrrolizin-7a(5H)-yl)methoxy)pyrido[4,3-d]pyrimidin-4-yl)amino)methyl)bicyclo[1.1.1]pentan-1-yl)(3-methyl-1H-pyrazol-1-yl)methanone], the IC50 on KRas G12C was 3 nM; on KRas G12S it was 17 nM; at KRas WT, 59 nM; in assay [1], > 10000 nM; in assay [2], 1380 nM.

Turning to `CCc1c(F)ccc2cc(O)cc(-c3ncc4c(NCC5CC(C(=O)n6ccc(C)n6)C5)nc(OC[C@@]56CCCN5C[C@H](F)C6)nc4c3F)c12` (stereo partly drawn) [Example 93, (3-(((7-(8-ethyl-7-fluoro-3-hydroxynaphthalen-1-yl)-8-fluoro-2-(((2R,7aS)-2-fluorotetrahydro-1H-pyrrolizin-7a(5H)-yl)methoxy)pyrido[4,3-d]pyrimidin-4-yl)amino)methyl)cyclobutyl)(3-methyl-1H-pyrazol-1-yl)methanone], the IC50 on KRas G12C came out at 4 nM; at KRas G12S it was 3 nM; on KRas WT, 13 nM; in assay [1], 325 nM; in assay [2] it was 26 nM.

On to `CCc1c(F)ccc2cc(O)cc(-c3ncc4c(N5CCC(C)(C(=O)n6ccc(C)n6)C5)nc(OC[C@@]56CCCN5C[C@H](F)C6)nc4c3F)c12` (stereo partly drawn) [Example 94, (1-(7-(8-ethyl-7-fluoro-3-hydroxynaphthalen-1-yl)-8-fluoro-2-(((2R,7aS)-2-fluorotetrahydro-1H-pyrrolizin-7a(5H)-yl)methoxy)pyrido[4,3-d]pyrimidin-4-yl)-3-methylpyrrolidin-3-yl)(3-methyl-1H-pyrazol-1-yl)methanone], for which the IC50 worked out at 15 nM at KRas G12C; 232 nM at KRas G12S; 306 nM on KRas WT; 6200 nM in assay [1]; 1070 nM in assay [2].

Regarding `CCc1c(F)ccc2cc(O)cc(-c3ncc4c(N5CCC(COC)(C(=O)n6ccc(C)n6)C5)nc(OC[C@@]56CCCN5C[C@H](F)C6)nc4c3F)c12` (stereo partly drawn) [Example 95, (1-(7-(8-ethyl-7-fluoro-3-hydroxynaphthalen-1-yl)-8-fluoro-2-(((2R,7aS)-2-fluorotetrahydro-1H-pyrrolizin-7a(5H)-yl)methoxy)pyrido[4,3-d]pyrimidin-4-yl)-3-(methoxymethyl)pyrrolidin-3-yl)(3-methyl-1H-pyrazol-1-yl)methanone], the half-inhibitory concentration (IC50) was 257 nM at KRas G12C; 1600 nM on KRas G12S; 1080 nM at KRas WT; > 10000 nM in assay [1]; 4220 nM in assay [2].
